Data: US7144992B2, “Synergistic antimicrobial compositions and methods for reducing biofilm formation” (Kane Biotech Inc., priority 2004, dated 2006)

What was measured:
[1] = test system: thioredoxin reductase; conditions: enzyme crosslinked with the thiol-specific reagent; Donna et al., Prot. Sci. 7:369–375, 1998; cited from earlier work
[2] = Solubility; conditions: for solubility in organic solvents: DMSO, methanol, acetone and acetonitrile

O=C1C=CC(=O)N1c1ccccc1N1C(=O)C=CC1=O [oPDM, N,N′-(1,2-phenylene) dimaleimide]
decrease in thioredoxin reductase activity [1]: 95%
solubility in organic solvents [2]: soluble in organic solvents
solubility in water [2]: not soluble in water

O=C1C=CC(=O)N1c1ccc2ccc3cccc4ccc1c2c34 [PyrM, N-(1-pyrenyl) maleimide]
solubility in organic solvents [2]: soluble in organic solvents
solubility in water [2]: not soluble in water
